Results on 29 compounds are retold here after patent US10981917B2, “Heterocyclic compound, its preparation method, and pharmaceutical composition comprising the same” (Daewoong Pharmaceutical Co., Ltd., priority 2017, dated 2021).

pIC50: −log10 of the molar value.

By pIC50 is commonly meant −log10 of the IC50, conventionally taken in molar units. A higher pIC50 goes with a low IC50.

Sequence of PRS (prolyl-tRNA synthetase) protein, PRS portion of EPRS (P07814 1007-1512): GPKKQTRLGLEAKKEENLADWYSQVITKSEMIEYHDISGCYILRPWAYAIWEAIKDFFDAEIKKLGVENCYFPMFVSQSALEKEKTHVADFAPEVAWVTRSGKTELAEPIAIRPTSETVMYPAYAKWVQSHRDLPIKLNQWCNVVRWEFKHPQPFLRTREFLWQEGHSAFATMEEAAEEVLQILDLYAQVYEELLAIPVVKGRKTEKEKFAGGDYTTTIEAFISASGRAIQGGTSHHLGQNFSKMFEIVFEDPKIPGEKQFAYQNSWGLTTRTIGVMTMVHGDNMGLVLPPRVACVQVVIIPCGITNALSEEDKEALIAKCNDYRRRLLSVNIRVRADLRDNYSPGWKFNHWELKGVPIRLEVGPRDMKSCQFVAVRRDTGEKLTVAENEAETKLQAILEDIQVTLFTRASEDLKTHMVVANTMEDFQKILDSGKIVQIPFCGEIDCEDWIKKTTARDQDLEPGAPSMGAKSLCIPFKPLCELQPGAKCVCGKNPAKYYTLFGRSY

This test has as its target PRS (prolyl-tRNA synthetase) protein, PRS portion of EPRS (Homo sapiens (Human), UniProt P07814). The test is described as follows: PRS enzyme activity inhibition experiment ([3H]proline, liquid scintillation). Type of test: biochemical. To be noted: purified PRS protein, 37° C. for 5 to 10 minutes. A digest of the protocol:
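Values are % inhibition or IC50 ranges (A ≤100 nM, B 100–500 nM, C ≥500 nM) from [3H]proline incorporation measured by liquid scintillation. PRS portion of human EPRS, reacted 5–10 min at 37 °C in pH 7.4 phosphate buffer containing 5 mM ATP and tRNA, compound at 1 μM.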
The compound `O[C@H]1CCCN[C@@H]1/C=C(\F)Cn1cnc2cc(Cl)c(Cl)cc21` [Example 219, (2R,3S)-2-((Z)-3-(5,6-dichloro-1H-benzo[d]imidazol-1-yl)-2-fluoroprop-1-en-1-yl)piperidin-3-ol] gave a pIC50 not above 6.30.
Regarding `O[C@H]1CCCN[C@@H]1CCCn1cnc2cc(Cl)cc(Cl)c21` [Example 80, (2R,3S)-2-(3-(5,7-dichloro-1H-benzo[d]imidazol-1-yl)propyl)piperidin-3-ol], the negative-log IC50 (pIC50) was not below 7.00.
In turn, `CCN(CC)c1ncnc2c1ncn2CCC[C@H]1NCCC[C@@H]1O` [Example 138, (2R,3S)-2-(3-(6-(diethylamino)-9H-purin-9-yl)propyl)piperidin-3-ol] gave a pIC50 not above 6.30.
`COc1ccc2c(ncn2CCC[C@H]2NCCC[C@@H]2O)c1Cl` [Example 59, (2R,3S)-2-(3-(4-chloro-5-methoxy-1H-benzo[d]imidazol-1-yl)propyl)piperidin-3-ol] showed a pIC50 of 6.30 to 7.00.
`Cn1c(=O)[nH]c(=O)c2c1ncn2CCC[C@H]1NCCC[C@@H]1O` [Example 163, 7-(3-((2R,3S)-3-hydroxypiperidin-2-yl)propyl)-3-methyl-1H-purine-2,6(3H,7H)-dione] showed a pIC50 not above 6.30.
Consider `Cc1noc(C)c1-c1cc(Cl)cc2ncn(CCC[C@H]3NCCC[C@@H]3O)c12` [Example 93, (2R,3S)-2-(3-(5-chloro-7-(3,5-dimethylisoxazol-4-yl)-1H-benzo[d]imidazol-1-yl)propyl)piperidin-3-ol], for which the pIC50 is not above 6.30.
Turning to `COC(=O)c1cn(CCC[C@H]2NCCC[C@@H]2O)c2cc(Cl)ccc12` [Example 153, methyl 6-chloro-1-(3-((2R,3S)-3-hydroxypiperidin-2-yl)propyl)-1H-indole-3-carboxylate], the negative-log IC50 (pIC50) is 6.30 to 7.00.
In the case of `O[C@H]1CCCN[C@@H]1CCCn1cnc2nc(Cl)ncc21` [Example 135, (2R,3S)-2-(3-(2-chloro-7H-purin-7-yl)propyl)piperidin-3-ol], the pIC50 is not above 6.30.
`COC(=O)c1cn(CCC[C@H]2NCCC[C@@H]2O)c2ccc(Br)cc12` [Example 150, methyl 5-bromo-1-(3-((2R,3S)-3-hydroxypiperidin-2-yl)propyl)-1H-indole-3-carboxylate] showed a pIC50 not above 6.30.
`O[C@H]1CCCN[C@@H]1CCCn1cnc2c(F)c(Br)ccc21` [Example 47, (2R,3S)-2-(3-(5-bromo-4-fluoro-1H-benzo[d]imidazol-1-yl)propyl)piperidin-3-ol]: the pIC50 is 6.30 to 7.00.
Compound `O[C@H]1CCCN[C@@H]1/C=C/Cn1cnc2cc(Cl)c(Cl)cc21` [Example 166, (2R,3S)-2-((E)-3-(5,6-dichloro-1H-benzo[d]imidazol-1-yl)prop-1-enyl)piperidin-3-ol] gave a pIC50 of 6.30 to 7.00.
In the case of `O[C@H]1CCCN[C@@H]1CCCn1cnc2c(Cl)c(Cl)cnc21` [Example 130, (2R,3S)-2-(3-(6,7-dichloro-3H-imidazo[4,5-b]pyridin-3-yl)propyl)piperidin-3-ol], the pIC50 was 6.30 to 7.00.
`Cc1ccc2c(c1)ncn2CCC[C@H]1NCCC[C@@H]1O` [Example 14, (2R,3S)-2-(3-(5-methyl-1H-benzo[d]imidazol-1-yl)propyl)piperidin-3-ol] showed a pIC50 not above 6.30.
With `O[C@H]1CCCN[C@@H]1CCCn1cnc2ccc(-c3cccc(F)c3)cc21` [Example 24, (2R,3S)-2-(3-(6-(3-fluorophenyl)-1H-benzo[d]imidazol-1-yl)propyl)piperidin-3-ol], the pIC50 is not below 7.00.
`O[C@H]1CCCN[C@@H]1CCCn1cnc2c(Cl)c(F)ccc21` [Example 62, (2R,3S)-2-(3-(4-chloro-5-fluoro-1H-benzo[d]imidazol-1-yl)propyl)piperidin-3-ol] had a pIC50 of 6.30 to 7.00.
For `O[C@H]1CCCN[C@@H]1CCCn1cnc2c(F)cccc21` [Example 6, (2R,3S)-2-(3-(4-fluoro-1H-benzo[d]imidazol-1-yl)propyl)piperidin-3-ol], the pIC50 was not above 6.30.
As for `Cc1ccc2c(ncn2CCC[C@H]2NCCC[C@@H]2O)c1C` [Example 51, (2R,3S)-2-(3-(4,5-dimethyl-1H-benzo[d]imidazol-1-yl)propyl)piperidin-3-ol], the pIC50 was not above 6.30.
Compound `O[C@H]1CCCN[C@@H]1CCCn1cnc2cc(C(F)(F)F)cc(-c3cn[nH]c3)c21` [Example 82, (2R,3S)-2-(3-(7-(1H-pyrazol-4-yl)-5-(trifluoromethyl)-1H-benzo[d]imidazol-1-yl)propyl)piperidin-3-ol] showed a pIC50 not above 6.30.
Under `O[C@H]1CCCN[C@@H]1CCCn1cnc2c(-c3cccc(F)c3)cccc21` [Example 20, (2R,3S)-2-(3-(4-(3-fluorophenyl)-1H-benzo[d]imidazol-1-yl)propyl)piperidin-3-ol] stands not above 6.30.
Under `COc1cc2ncn(CCC[C@H]3NCCC[C@@H]3O)c2cc1Cl` [Example 37, (2R,3S)-2-(3-(6-chloro-5-methoxy-1H-benzo[d]imidazol-1-yl)propyl)piperidin-3-ol] stands 6.30 to 7.00.
Under `O[C@H]1CCCN[C@@H]1CCCn1cnc2cc(Cl)cc(-c3cncc(F)c3)c21` [Example 87, (2R,3S)-2-(3-(5-chloro-7-(5-fluoropyridin-3-yl)-1H-benzo[d]imidazol-1-yl)propyl)piperidin-3-ol] stands 6.30 to 7.00; under `Cc1cscc1-c1cc(Cl)cc2ncn(CCC[C@H]3NCCC[C@@H]3O)c12` [Example 109, (2R,3S)-2-(3-(5-chloro-7-(4-methylthiophen-3-yl)-1H-benzo[d]imidazol-1-yl)propyl)piperidin-3-ol], not below 7.00; under `O[C@H]1CCCN[C@@H]1CCCn1cnc2cnc(Br)cc21` [Example 124, (2R,3S)-2-(3-(6-bromo-1H-imidazo[4,5-c]pyridin-1-yl)propyl)piperidin-3-ol], not above 6.30.
The compound `Cn1c(=O)n(CCC[C@H]2NCCC[C@@H]2O)c2ccccc21` [Example 159, 1-(3-((2R,3S)-3-hydroxypiperidin-2-yl)propyl)-3-methyl-1H-benzo[d]imidazol-2(3H)-one] had a pIC50 not above 6.30.
For `Cc1c(Cl)ccc2c1ncn2C/C(F)=C/[C@H]1NCCC[C@@H]1O` [Example 217, (2R,3S)-2-((Z)-3-(5-chloro-4-methyl-1H-benzo[d]imidazol-1-yl)-2-fluoroprop-1-enyl)piperidin-3-ol], the pIC50 is not above 6.30.
Under `CC(C)CCn1cc(-c2cc(Cl)cc3ncn(CCC[C@H]4NCCC[C@@H]4O)c23)cn1` [Example 107, (2R,3S)-2-(3-(5-chloro-7-(1-isopentyl-1H-pyrazol-4-yl)-1H-benzo[d]imidazol-1-yl)propyl)piperidin-3-ol] stands 6.30 to 7.00; under `O[C@H]1CCCN[C@@H]1CCCn1cnc2cccc(-c3ccc(F)cc3)c21` [Example 28, (2R,3S)-2-(3-(7-(4-fluorophenyl)-1H-benzo[d]imidazol-1-yl)propyl)piperidin-3-ol], 6.30 to 7.00; under `O[C@H]1CCCN[C@@H]1CCCn1cnc2cc(Cl)ccc21` [Example 11, (2R,3S)-2-(3-(5-chloro-1H-benzo[d]imidazol-1-yl)propyl)piperidin-3-ol], 6.30 to 7.00.
Compound `Cn1c(=O)[nH]c2c(ncn2CCC[C@H]2NCCC[C@@H]2O)c1=O` [Example 164, 9-(3-((2R,3S)-3-hydroxypiperidin-2-yl)propyl)-1-methyl-1H-purine-2,6(3H,9H)-dione] showed a pIC50 not above 6.30.
